SMILES strings stand for the structures.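 Following 48 hours of exposure in 96-well plates, responses at five concentrations were used to interpolate endpoints linearly. At the GI50, growth is halved. The concentration for full growth arrest is given as TGI.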 Where only a bound is given, the exact number is not on record here.

What all share (assay): inhibition of tumour cell growth, NCI panel, 48 h
Test [1] has as its system MOLT-4 leukemia.
Test [2] deals with CCRF-CEM leukemia.
For test [3], the system named is HT29 colon.
Test [4] deals with SK-MEL-5 melanoma.
In test [5] the test system is M14 melanoma.
Test [6] deals with NCI-H226 lung.
Test [7] concerns SK-MEL-28 melanoma.
Test [8] has as its system RPMI-8226 leukemia.
Test [9] relates to K-562 leukemia.
Test [10] concerns BT-549 breast.

On to `O=C(Nc1ccccc1)OC1OC(COC(=O)c2ccccc2)C(OC(=O)c2ccccc2)C1OS(=O)(=O)c1ccc([N+](=O)[O-])cc1` (stereo not drawn), for which the TGI in [1], in test [2], in [3], in test [4], in test [5] and in [6] was above 100 µM throughout. Moreover, the TGI in test [7], in [8], in test [9] and in [10] was above 100 µM throughout.
`C#C[C@@]1(O)[C@@H](CO)O[C@@H](n2cc(C(F)(F)F)c3c(N)ncnc32)[C@@H]1O`: the GI50 in test [1] was 0.29 µM; in test [2], 0.487 µM; in test [3], 0.207 µM; in test [4], 0.688 µM; in test [5], 0.724 µM; in [6], 2.7 µM. Besides, the GI50 was 1.83 µM in test [7], 0.886 µM in [8], 0.291 µM in test [9] and 0.962 µM in test [10]. Moreover, the TGI is 1.33 µM in [1]; above 37.2 µM in test [2]; 8.3 µM in [3]; 4.38 µM in [4]; 3.56 µM in test [5]; above 100 µM in test [6]. The TGI in test [7] stood at 10 µM; in test [8], 4.56 µM; in test [9] it was 0.909 µM; in test [10], 4.69 µM.
Consider `Clc1cccc(CNc2c3ccccc3nc3ccccc23)c1`, for which the GI50 in test [1] is 2.51 µM; in [2], 2.31 µM; in test [3], 1.98 µM; in [4], 1.72 µM; in test [5] it was 1.53 µM; in test [6], 2.22 µM. Moreover, the GI50 was 1.7 µM in test [7], 1.74 µM in test [8], 2.39 µM in [9] and 2.34 µM in test [10]. Besides, the TGI in [1] stood at 10.7 µM; in test [2], 8.77 µM; in test [3], 10.2 µM; in test [4], 3.13 µM; in [5], 3.02 µM; in test [6] it was 6.24 µM. Besides, the TGI is 3.25 µM in [7], 4.18 µM in [8], 11.2 µM in test [9] and 7.19 µM in [10].
Consider `COc1cc([N+](=O)[O-])c(S(=O)(=O)O)cc1-n1nc(C(=O)Nc2ccccc2)n[n+]1-c1cc(S(=O)(=O)[O-])c([N+](=O)[O-])cc1OC`, for which the TGI in test [1], in [2], in test [3], in [4], in [5] and in [6] was above 100 µM in each case. In addition, the TGI in [7], in test [8], in test [9] and in test [10] was above 100 µM throughout.
In the case of `CCCCOc1ccc(/C=N/Nc2cc(C)nc3ccc(Br)cc23)cc1`, the GI50 in test [1] is 1.91 µM; in [2], 1.88 µM; in test [3] it was 1.55 µM; in test [4] it was 1.68 µM; in test [5], 1.74 µM; in [6], 1.83 µM. Besides, the GI50 in test [7] was 1.72 µM; in test [8] it was 2.03 µM; in test [9] it was 1.71 µM; in [10], 1.77 µM. For the same compound, the TGI in [1] turned out to be 4.11 µM; in test [2] it was 4.46 µM; in test [3], 2.97 µM; in test [4] it was 3.05 µM; in test [5] it was 3.2 µM; in [6] it was 3.82 µM. For the same compound, the TGI in test [7] was 3.13 µM; in [8], 4.58 µM; in test [9] it was 3.97 µM; in test [10] it was 3.42 µM.
Turning to `COc1ccc(-c2cc(-c3ccc(Cl)cc3)nc(NCCCCNc3ccnc4cc(Cl)ccc34)n2)cc1`, the GI50 in [1] is 2.65 µM; in test [2], 2.6 µM; in test [3], 1.68 µM; in test [4], 1.7 µM; in test [5] it was 2.34 µM; in test [6], 31.8 µM. Moreover, the GI50 is 1.76 µM in test [7], 2.14 µM in [8], 1.83 µM in [9] and 13.4 µM in test [10]. For the same compound, the TGI was 8.28 µM in [1]; above 100 µM in [2]; 3.57 µM in [3]; 3.08 µM in [4]; 6.3 µM in [5]; above 100 µM in test [6]. In addition, the TGI was 3.32 µM in test [7], 5.66 µM in test [8], 5.02 µM in [9] and 28.6 µM in test [10].
As to `O=C(Nc1cc(F)c(F)cc1C(=O)O)c1ccc(-n2ccnc2)nn1`, the GI50 in test [1] is above 100 µM; in [2], 98.2 µM; in test [3] it was above 100 µM; in test [4] it was above 100 µM; in test [5], above 100 µM; in test [6] it was above 100 µM. Further, the GI50 in test [7] was above 100 µM; in [8], above 100 µM; in test [9] it was 80.5 µM; in test [10], 81.9 µM. For the same compound, the TGI in [1], in test [2], in [3], in [4], in test [5] and in [6] was above 100 µM in each case. In addition, the TGI in test [7], in test [8], in test [9] and in test [10] was above 100 µM throughout.
On to `O=C(/C=C/c1ccccn1)c1ccc(OCc2nnc(-c3ccc(Cl)cc3)o2)cc1`, for which the GI50 was 2.91 µM in test [1]; 1.83 µM in [2]; 1.85 µM in test [3]; 1.56 µM in test [4]; 1.99 µM in test [5]; 2.69 µM in test [6]. For the same compound, the GI50 in test [7] was 1.77 µM; in test [8], 0.296 µM; in test [9], 2 µM; in test [10], 1.92 µM. The TGI in test [1] amounted to 6.68 µM; in [2], 5.88 µM; in test [3], 3.99 µM; in test [4], 3.14 µM; in [5], 3.87 µM; in [6], 7.79 µM. Further, the TGI stood at 3.36 µM in test [7], 1.06 µM in test [8], 4.8 µM in test [9] and 3.46 µM in [10].
Take `CCN(CC)CCN1c2nc3ccccc3cc2Sc2cc3ccccc3nc21`: the GI50 is 2.31 µM in [1]; 1.84 µM in [2]; 1.21 µM in [3]; 1.36 µM in test [4]; 1.64 µM in [5]; 3.31 µM in test [6]. Moreover, the GI50 in test [7] was 1.8 µM; in test [8], 1 µM; in [9] it was 3.04 µM; in test [10] it was 2.83 µM. The TGI in test [1] was 6.6 µM; in test [2], 4.73 µM; in test [3], 3.06 µM; in test [4], 2.69 µM; in [5] it was 3.38 µM; in [6] it was 14.2 µM. For the same compound, the TGI in [7] was 3.49 µM; in test [8], 2.97 µM; in test [9], above 100 µM; in [10], 12.2 µM.
For the compound `O=C(NCCOCCOCCOCCNC(=O)c1cc2c(o1)C(=O)c1ccccc1C2=O)NC12CC3CC(CC(C3)C1)C2`, the GI50 in test [1] was 2.87 µM; in test [2], 3.23 µM; in test [3], 2.6 µM; in test [4] it was 0.303 µM; in test [5] it was 0.462 µM; in test [6] it was 1.56 µM. Besides, the GI50 is 1.94 µM in [7], 1.87 µM in test [8], 1.98 µM in [9] and 1.5 µM in test [10]. For the same compound, the TGI was 8.04 µM in test [1]; above 100 µM in test [2]; 6.79 µM in [3]; 1.02 µM in [4]; 1.8 µM in test [5]; 3.66 µM in [6]. Further, the TGI in test [7] was determined as 3.75 µM; in test [8], 5.63 µM; in test [9], 8.91 µM; in test [10], 3.25 µM.
For `COc1ccc(C(=O)c2cc3c(N)c(C(=O)Nc4cccc(Br)c4C)sc3nc2C)cc1`, the GI50 was 0.109 µM in test [1]; 0.0409 µM in test [2]; 0.0509 µM in test [3]; 0.193 µM in test [4]; 0.0267 µM in test [5]; 0.173 µM in test [6]. In addition, the GI50 was above 100 µM in [7], 0.037 µM in test [8], 0.0375 µM in test [9] and 0.123 µM in [10]. Moreover, the TGI in test [1] is above 100 µM; in test [2], above 100 µM; in test [3] it was above 100 µM; in test [4], 1.81 µM; in test [5], above 100 µM; in test [6], above 100 µM. Further, the TGI in test [7], in [9] and in test [10] was above 100 µM throughout.
In the case of `COc1ccc2c(O)c(/C=C3\N=Nc4ncccc43)oc2c1C[C@@H]1CCNC[C@H]1F`, the GI50 in test [1] is 0.181 µM; in [2], 0.141 µM; in test [3], 0.307 µM; in test [4] it was 0.869 µM; in [5], 0.557 µM; in [6] it was 0.256 µM. The GI50 in [7] was 2.22 µM; in [8], 0.266 µM; in test [9] it was 0.442 µM. Further, the TGI in test [1] amounted to 0.544 µM; in test [2], 0.993 µM; in test [3], 2.09 µM; in [4], 8.35 µM; in test [5] it was 2.2 µM; in test [6], 3.55 µM. The TGI in test [7] was found to be 7.25 µM; in [8] it was 0.984 µM; in test [9], 1.79 µM; in test [10], 2.53 µM.

(Values after PubChem BioAssay (NCI).)
